One test concerns Pythium aphanidermatum. Put plainly: In-vivo validation under greenhouse conditions in cucumber seedlings infected with Pythium aphanidermatum. To be noted: preventative treatment 24 h before inoculation; 2 types of formulations; 100 to 400 ppm; evaluated 7 days after inoculation. The text has this: FIGS. 1-8 show the effect of Licochalcone C (LIC) on cucumber seedlings survival in 8 independent experiments determined as percentage of disease severity 7 days following inoculation with Pythium aphanidermatum. FIGS. 9-11 show effect of Licochalcone C (LIC) on cucumber seedlings survival in 3 independent experiments determined as of disease severity 7 days following inoculation with Rhizoctonia solani. * means that p-value <0.05, ** means that p-value is <0.01, # means that p-value <0.1, n.s. means non-significant difference vs. non-treated plants. For formulation description used for Licochalcone C see Example 7.
To evaluate the effect of a Licochalcone C in infected plants compared to control plants (infected but not treated) the data was analysed by Student's t-test and the p-value is calculated. The minimum number of repeats in each experiment was 3. Results were considered significant if p<0.05. The data presented as mean with standard error mean from biological replicates. * means that p-value <0.05, ** means that p-value is <0.01, # means that p-value <0.1. […]
General description: Pythium aphanidermatum disease severity development was evaluated following preventative treatment by Licochalcone C (LIC) […]

The next test has as its system Sclerotinia sclerotiorum. Put plainly: Microplate based screening of bioactivity against Sclerotinia sclerotiorum. To be noted: 10 μl of 250 ppm solution + 40 μl inoculum, activity grade x repeats x days of activity/252 x 100. It is filed as cell-based. The procedure:
Diluted in DMSO purified Licochalcone C was added to microplate wells and mixed with 50 μl of hyphae suspension and growth of the fungus starting from blended hyphae was monitored by visual inspection. Dilute the inoculum stock 1:10 in PDBC—2 ml in 20 ml, or calculate the dilution needed, to prepare final concentration of 2000 CFU/ml. The final number of hyphae should be 100 CFU in each well. Microplate Preparation for Activity Experiment: • 1) Take a stock solution of purified 1% Licochalcone C in DMSO from the −20 freezer and thaw it on the bench. • 2) Take 1 μl of stock solution of 1% Licochalcone C and dilute up to 250 ppm with 39 μl of water. • 3) Take 10 μl of the diluted (250 ppm) Licochalcone C solution into the wells of the microplate using a multi-pipette. • 4) Add 40 μl of vigorously mixed spore suspension inoculum to the wells of the microplate using a multi-pipette. • 5) Seal the plate with transparent sealer • 6) Shake the plate for 10 min at 2000 RPM to mix the Licochalcone C with the hyphae suspension • 7) Centrifugate the plate at 1000RCF for is and stop to collect the liquid at the bottom of the plate. • 8) Collect the plates on the bench until all microplates are ready for incubation. • 9) Insert microplates into a plastic box and put the box in the incubator at 21° C. […]

As to `COc1c(/C=C/C(=O)c2ccc(O)cc2)ccc(O)c1CC=C(C)C` [Licochalcone C, (E)-3-[4-hydroxy-2-methoxy-3-(3-methylbut-2-enyl)phenyl]-1-(4-hydroxyphenyl)prop-2-en-1-one], the “efficacy in preventing Pythium disease in cucumber seedling” value in the test on Pythium aphanidermatum is on record as “up to 100%”. Further, in the test with Sclerotinia sclerotiorum, the “Relative Activity value (%)” value amounted to 13%.
